# Results: patent US7482489B2, “Enantiomerically pure (R)-albuterol dibenzoyltartrate and protected analogs thereof” (Teva Pharmaceutical Fine Chemicals S.r.l., priority 2004, dated 2009)
# Where a name gives a salt, the structure may show the parent alone.
# What was measured:
# Type in all cases: physicochemical
# [1] = Stability comparison of sample at 40° C. and 75% RH (HPLC area %)
# Description: Yields were determined by mass. Chemical purity was determined by HPLC. The HPLC analysis was conducted using a column POLARIS C18-A 250 mm×4.6 mm×[…] (cat n.2002-250×046) and a mobile phase. The mobile phase comprised a phosphate buffer at pH 3.00 and acetonitrile in a gradient. The eluent flow was 1.0 ml/min. The detector was set to a wavelength of 230 nm, using an HPLC Hewlett Packard VWD detector HP 1100, as a detector.
# Using the products of the previous examples, a stability study at 40° C. and 75% RH was carried out.
# [2] = Stability of levalbuterol hydrochloride at 70° C. (HPLC area %, appearance)
# Description: [table] […] At lower pH values, greater levalbuterol hydrochloride degradation occurred. […] Yields were determined by mass. Chemical purity was determined by HPLC. […] The mobile phase comprised a phosphate buffer at pH 3.00 and acetonitrile in a gradient. The eluent flow was 1.0 ml/min. The detector was set to a wavelength of 230 nm, using an HPLC Hewlett Packard VWD detector HP 1100, as a detector.
# [3] = Stability of levalbuterol hydrochloride at different storage temperatures (HPLC area %)
# Description: At lower pH values, greater levalbuterol hydrochloride degradation occurred. […] [table] […] The percentage LVB, Compound B, or Compound A is relative to the total amount of sample at time=T. Yields were determined by mass. Chemical purity was determined by HPLC. […] The mobile phase comprised a phosphate buffer at pH 3.00 and acetonitrile in a gradient. The eluent flow was 1.0 ml/min. The detector was set to a wavelength of 230 nm, using an HPLC Hewlett Packard VWD detector HP 1100, as a detector.
# [4] = 3 months at 40° C. and 75% RH, Hydrochloride
# [5] = 6 months at 40° C. and 75% RH, Hydrochloride
# [6] = T = 0, 40° C. and 75% RH study, Hydrochloride
# [7] = 1 week at 70° C., Hydrochloride
# [8] = T = 0, before storage at 70° C., Hydrochloride
smiles,measurement,setting,value
"CC(C)(C)NC[C@H](O)c1ccc(O)c(CO)c1 [Example 16, Levalbuterol Hydrochloride]",Comp. C,[1]; 3 months at 40° C. and 75% RH,0.04%
same,Comp. A,[1]; [4],0.06%
same,Comp. B,[1]; [4],0.09%
same,LVB,[1]; [4],99.75%
same,Total Unknown Impurities,[1]; [4],0.08%
same,Comp. C,[1]; 6 months at 40° C. and 75% RH,0.05%
same,Comp. A,[1]; [5],0.07%
same,Comp. B,[1]; [5],0.13%
same,LVB,[1]; [5],99.72%
same,Comp. A,[1]; [6],0.01%
same,Comp. B,[1]; [6],0.02%
same,LVB,[1]; [6],99.86%
same,Total Unknown Impurities,[1]; [6],0.11%
"CC(C)(C)NC[C@H](O)c1ccc(O)c(CO)c1 [Example 8, Levalbuterol Hydrochloride]",Comp. A,[1]; [4],0.03%
same,Comp. B,[1]; [4],0.07%
same,LVB,[1]; [4],99.85%
same,Total Unknown Impurities,[1]; [4],0.05%
same,Total Unknown Impurities,[1]; 6 months at 40° C. and 75% RH,0.09%
same,Comp. A,[1]; [5],0.03%
same,Comp. B,[1]; [5],0.07%
same,LVB,[1]; [5],98.81%
same,Comp. A,[1]; [6],0.01%
same,Comp. B,[1]; [6],0.03%
same,LVB,[1]; [6],99.87%
same,Total Unknown Impurities,[1]; [6],0.09%
"CC(C)(C)NC[C@H](O)c1ccc(O)c(CO)c1 [Example 21, Levalbuterol Hydrochloride]",Compound A,[2]; [7],0.72%
same,Compound B,[2]; [7],0.26%
same,Compound C,[2]; [7],0.18%
same,LVB (levalbuterol hydrochloride),[2]; [7],97.1%
same,Sample (appearance),[2]; [7],Pale yellow
same,Total Unknown Impurities,[2]; [7],1.21%
same,Compound C,"[2]; T = 0, before storage at 70° C.",0.15%
same,Compound A,[2]; [8],0.24%
same,Compound B,[2]; [8],0.18%
same,LVB (levalbuterol hydrochloride),[2]; [8],99.4%
same,Sample (appearance),[2]; [8],White solid^c
"CC(C)(C)NC[C@H](O)c1ccc(O)c(CO)c1 [levalbuterol hydrochloride, (R)-α^1-[[(1,1-dimethylethyl)amino]methyl]-4-hydroxy-1,3-benzenedimethanol hydrochloride]",Sample (appearance),[2]; [8],White solid
same,Compound A,"[3]; 1 month, 25° C.",0.03%
same,Compound B,"[3]; 1 month, 25° C.",0.02%
same,LVB,"[3]; 1 month, 25° C.",99.87%
same,Total Unknown Impurities,"[3]; 1 month, 25° C.",0.08%
same,Compound A,"[3]; 2 months, 25° C.",0.04%
same,Compound B,"[3]; 2 months, 25° C.",0.02%
same,LVB,"[3]; 2 months, 25° C.",99.82%
same,Total Unknown Impurities,"[3]; 2 months, 25° C.",0.12%
same,Compound A,"[3]; 20 hrs, 40-45° C.",0.11%
same,Compound B,"[3]; 20 hrs, 40-45° C.",0.30%
same,LVB,"[3]; 20 hrs, 40-45° C.",99.30%
same,Total Unknown Impurities,"[3]; 20 hrs, 40-45° C.",0.29%
same,Compound A,"[3]; 20 hrs, 55-60° C.",0.23%
same,Compound B,"[3]; 20 hrs, 55-60° C.",0.45%
same,LVB,"[3]; 20 hrs, 55-60° C.",98.17%
same,Total Unknown Impurities,"[3]; 20 hrs, 55-60° C.",1.15%
same,Compound A,"[3]; 32 hrs, 55-60° C.",0.26%
same,Compound B,"[3]; 32 hrs, 55-60° C.",0.45%
same,LVB,"[3]; 32 hrs, 55-60° C.",97.9%
same,Total Unknown Impurities,"[3]; 32 hrs, 55-60° C.",1.39%
same,Compound A,"[3]; 10 days, 25° C.",0.02%
same,Compound B,"[3]; 10 days, 25° C.",0.01%
same,LVB,"[3]; 10 days, 25° C.",99.88%
same,Total Unknown Impurities,"[3]; 10 days, 25° C.",0.09%
same,Compound A,"[3]; T = 0, 20° C., MeOH 6700 ppm",0.028%
same,Compound B,"[3]; T = 0, 20° C., MeOH 6700 ppm",0.035%
same,LVB,"[3]; T = 0, 20° C., MeOH 6700 ppm",99.84%
same,Total Unknown Impurities,"[3]; T = 0, 20° C., MeOH 6700 ppm",0.097%
same,Compound A,"[3]; T = 0, 25° C., MeOH 2090 ppm",0.02%
same,Compound B,"[3]; T = 0, 25° C., MeOH 2090 ppm",0.01%
same,LVB,"[3]; T = 0, 25° C., MeOH 2090 ppm",99.90%
same,Total Unknown Impurities,"[3]; T = 0, 25° C., MeOH 2090 ppm",0.07%
"CC(C)(C)NC[C@H](O)c1ccc(O)c(CO)c1 [Example 12, Levalbuterol Hydrochloride]",Comp. A,[1]; [4],0.02%
same,Comp. B,[1]; [4],0.06%
same,LVB,[1]; [4],99.85%
same,Total Unknown Impurities,[1]; [4],0.07%
same,Total Unknown Impurities,[1]; 6 months at 40° C. and 75% RH,0.09%
same,Comp. A,[1]; [5],0.02%
same,Comp. B,[1]; [5],0.06%
same,LVB,[1]; [5],99.83%
same,Comp. A,[1]; [6],0.02%
same,Comp. B,[1]; [6],0.01%
same,LVB,[1]; [6],99.91%
same,Total Unknown Impurities,[1]; [6],0.06%
